Consider six compounds from ChEMBL document CHEMBL5214920, “Emerging impact of triazoles as anti-tubercular agent” (Eur J Med Chem, 2022).

Converted amounts (≈) assume the structure as drawn.

One assay has as its system Mycobacterium tuberculosis. In words: Antitubercular activity against multi-drug-resistant Mycobacterium tuberculosis assessed as bacterial growth inhibition measured after 7 days by direct susceptibility assay. The class given is functional. To be noted: 168 h, time 7 day.
For the compound `NNC(=O)c1ccncc1` [ISONIAZID], the MIC is 512 µg/mL (≈ 3730 µM).

Regarding `CO/N=C1/C(=O)C(CCOCCOCCOCCn2cc(CN3C(=O)/C(=N/OC)c4cc(F)ccc43)nn2)c2ccccc21` (configuration not stated), the MIC was found to be 64 µg/mL (≈ 105 µM).

For the compound `CO[C@H]1/C=C/O[C@@]2(C)Oc3c(C)c(O)c4c(O)c(c(/C=N/N5CCN(C)CC5)c(O)c4c3C2=O)NC(=O)/C(C)=C\C=C\[C@H](C)[C@H](O)[C@@H](C)[C@@H](O)[C@@H](C)[C@H](OC(C)=O)[C@@H]1C` [RIFAMPIN], the MIC was determined as 64 µg/mL (≈ 77.8 µM).

On to `COc1c(N2CCNCC2)c(F)cc2c(=O)c(C(=O)O)cn(C3CC3)c12`, for which the MIC was found to be 2 µg/mL (≈ 5.53 µM).

Take `O=C(O)c1cn(C2CC2)c2cc(N3CCN(Cc4cn(CCN5C(=O)Cc6ccccc65)nn4)CC3)c(F)cc2c1=O`: the MIC was found to be 0.25 µg/mL (≈ 0.437 µM).

On to `O=C(O)c1cn(C2CC2)c2cc(N3CCNCC3)c(F)cc2c1=O` [CIPROFLOXACIN], for which the MIC was 4 µg/mL (≈ 12.1 µM).

A further assay deals with Mycobacterium tuberculosis. In words: Potency index, ratio of isoniazid MIC to test compound MIC for antitubercular activity against multi-drug-resistant Mycobacterium tuberculosis. It counts as functional.
Conditions: not given
As for `CO/N=C1/C(=O)C(CCOCCOCCOCCn2cc(CN3C(=O)/C(=N/OC)c4cc(F)ccc43)nn2)c2ccccc21` (configuration not stated), the Ratio amounted to 8.

In general, MIC refers to the smallest concentration in the dilution series that meets the test's criterion for growth inhibition.
